Values quoted from earlier work as cited in patent EP2018866A1, “Pharmaceutical compositions containing voriconazole” (SANDOZ AG, priority 2007, dated 2009).
In brackets after ≈: the same amount, converted by molar mass. Where two headings read alike, the source gives them in different places.

- aqueous solubility (at a pH 3): 200 µg/mL (≈ 573 µM)
- aqueous solubility (at a pH 7): 610 µg/mL (≈ 1750 µM)
SMILES: C[C@@H](c1ncncc1F)[C@](O)(Cn1cncn1)c1ccc(F)cc1F [Voriconazole, (2R,3S)-2-(2,4-Difluorophenyl)-3-(5-fluoro-4-pyrimidinyl)-1-(1H-1,2,4-triazol-1-yl)-butan-2-ol]
